The target in one series is T1, recombinant c-Myc/Max (Homo sapiens, UniProt P01106+P61244).
T1 construct: made in house
Nature of the series: Electrophoretic mobility shift assay (EMSA): inhibitory activity on DNA binding of recombinant c-Myc/Max. The settings on record: read-out: protein assay IC50. A digest of the protocol:
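Protein mixture preincubated 5 min at room temperature, compound in DMSO added for 5 min, then biotinylated annealed E-box DNA for 10 min to equilibrium. Complexes resolved on 8% polyacrylamide in 1×TBE (120 V, 1 h), detected with HRP-streptavidin/ECL; protein-DNA complex ratio from band intensity.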
For orientation: Mobility shift assays separate free from complexed probe on a gel.

Another series concerns UM-UC-3. Nature of the series: Selectivity evaluation, cytotoxicity in UM-UC-3. The settings on record: Homo sapiens, UMUC3; UM-UC-3 (malignant), 72 hours, ATP detection. Format: cell-based. On the procedure:
(§1) Commercially available bladder cancer cell lines were treated with trypsin-EDTA and seeded in each well of a 96 well plate, followed by incubation for 24 hours. After incubation, candidate compounds were added to each well at a final concentration of 0 to 2 μM. The compound-treated cells were further incubated for 72 hours. Cell viability was measured using an ATP detection method (CellTiter-Glo® Luminescent Cell Viability Assay, Promega).
(§2) The selectivity of the compounds of the present disclosure to cancer cells was evaluated in the same manner as described in “2. Cell based assay”.
UM-UC-3: human urinary bladder transitional cell carcinoma

For another series, the system named is 253J. In words: Selectivity evaluation, cytotoxicity in 253J. The class given is cell-based. The settings on record: Homo sapiens; 253J (malignant), 72 hours, ATP detection. The method, then:
as §1, §2
253J: human urinary tract transitional cell carcinoma

The subject of another series is Mouse. In words: IV and IP single toxicity test. The class given is in vivo. The settings on record: for Percentage (deaths), single toxicity evaluation: Mouse.

T1 sequence (P01106 whole entry): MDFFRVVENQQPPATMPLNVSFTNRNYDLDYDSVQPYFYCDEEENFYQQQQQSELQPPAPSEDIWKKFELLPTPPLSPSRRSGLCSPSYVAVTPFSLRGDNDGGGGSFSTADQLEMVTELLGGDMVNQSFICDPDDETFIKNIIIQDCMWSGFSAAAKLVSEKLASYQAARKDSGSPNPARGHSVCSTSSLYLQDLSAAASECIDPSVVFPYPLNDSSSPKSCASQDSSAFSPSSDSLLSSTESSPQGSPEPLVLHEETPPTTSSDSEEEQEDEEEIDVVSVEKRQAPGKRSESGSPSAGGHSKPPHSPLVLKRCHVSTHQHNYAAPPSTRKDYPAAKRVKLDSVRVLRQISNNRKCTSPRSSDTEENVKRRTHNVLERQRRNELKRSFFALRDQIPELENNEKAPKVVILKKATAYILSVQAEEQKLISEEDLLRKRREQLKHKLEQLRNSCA
T1 sequence (P61244 whole entry): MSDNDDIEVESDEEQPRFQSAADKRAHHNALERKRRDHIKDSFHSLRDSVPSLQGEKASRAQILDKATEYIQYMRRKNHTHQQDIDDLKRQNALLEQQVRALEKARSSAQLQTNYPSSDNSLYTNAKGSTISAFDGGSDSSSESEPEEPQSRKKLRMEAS

Broadly, the IC50 is the midpoint of a concentration-inhibition curve. Regarding `CC(=O)c1c([S+]([O-])Cc2ccc([N+](=O)[O-])cc2)[nH]c2c(Br)ccc(Cl)c2c1=O` (centres unmarked) [Compound 33, 3-acetyl-8-bromo-5-chloro-2-((4-nitrobenzyl)sulfinyl)quinolin-4(1H)-one], the IC50 is under 1 µM on recombinant c-Myc/Max, 1.6 µM with UM-UC-3 and 1.6 µM in the series on 253J.
`CSc1c(C(C)=O)c(=O)c2c(Cl)ccc(Br)c2n1S(=O)(=O)c1ccc([N+](=O)[O-])cc1` [Compound 38, 3-acetyl-8-bromo-5-chloro-2-(methylthio)-1-((4-nitrophenyl)sulfonyl)quinolin-4(1H)-one]: at recombinant c-Myc/Max, the IC50 is under 1 µM.
On the same count and under the same terms, the figure for `CC(=O)c1c([S+]([O-])Cc2ccccc2C#N)[nH]c2c(Br)ccc(Cl)c2c1=O` (centres unmarked) [Compound 58, 2-(((3-acetyl-8-bromo-5-chloro-4-oxo-1,4-dihydroquinolin-2-yl)sulfinyl)methyl)benzonitrile] is under 1 µM; for `CC(=O)c1c(SCc2cccc(C#N)c2)[nH]c2c(Br)ccc(Cl)c2c1=O` [Compound 27, 3-(((3-acetyl-8-bromo-5-chloro-4-oxo-1,4-dihydroquinolin-2-yl)thio)methyl)benzonitrile] it is under 1 µM; for `CC(=O)c1c(SCc2ccc(F)c(Cl)c2)[nH]c2c(Br)ccc(Cl)c2c1=O` [Compound 30, 3-acetyl-8-bromo-5-chloro-2-((3-chloro-4-fluorobenzyl)thio)quinolin-4(1H)-one] it is under 1 µM.
Take `CC(=O)c1c([S+]([O-])Cc2ccccc2)nc2c(Br)ccc(Cl)c2c1O` (centres unmarked) [Compound 4, 3-acetyl-2-(benzylsulfinyl)-8-bromo-5-chloroquinolin-4(1H)-one]: the IC50 was found to be 1.5 µM in the series on UM-UC-3 and 1.1 µM in the series with 253J. Moreover, the deaths entry with Mouse (IV and IP single-dose administration, 40 mpk, 40 mg/kg) is given as “No deaths were observed”. Moreover, the “Percentage (deaths), single toxicity evaluation” value in the series on Mouse (Female, IP 40 mg/kg) is listed as 0 (0/2) %; with Mouse (Female, IV 40 mg/kg) it was 0 (0/2) %; in the series on Mouse (Male, IP 40 mg/kg), 0 (0/2) %.
On to `CC(=O)c1c([S+]([O-])Cc2nonc2C)[nH]c2c(Br)ccc(Cl)c2c1=O` (centres unmarked) [Compound 106, 3-acetyl-8-bromo-5-chloro-2-(((4-methyl-1,2,5-oxadiazol-3-yl)methyl)sulfinyl)quinolin-4(1H)-one], for which, at recombinant c-Myc/Max, the IC50 was under 1 µM.
On the same count and under the same terms, the figure for `CC(=O)c1c([S+]([O-])Cc2cc(C)on2)[nH]c2c(Br)ccc(Cl)c2c1=O` (centres unmarked) [Compound 51, 3-acetyl-8-bromo-5-chloro-2-(((5-methylisoxazol-3-yl)methyl)sulfinyl)quinolin-4(1H)-one] is under 1 µM.
The same measure, in the same setting: the figure for `CC(C)C(=O)c1c([S+]([O-])Cc2ccc(SC(F)(F)F)cc2)[nH]c2c(F)ccc(F)c2c1=O` (centres unmarked) [Compound 85, 5,8-difluoro-3-isobutyryl-2-((4-((trifluoromethyl)thio)benzyl)sulfinyl)quinolin-4(1H)-one] is under 1 µM; for `COc1cccc(C[S+]([O-])c2[nH]c3c(Br)ccc(Cl)c3c(=O)c2C(C)=O)c1` (centres unmarked) [Compound 55, 3-acetyl-8-bromo-5-chloro-2-((3-methoxybenzyl)sulfinyl)quinolin-4(1H)-one] it is under 1 µM.
Still for that read-out and setting: the figure for `CC(=O)c1c([S+]([O-])Cc2ccc(F)c(Cl)c2)[nH]c2c(Br)ccc(Cl)c2c1=O` (centres unmarked) [Compound 31, 3-acetyl-8-bromo-5-chloro-2-((3-chloro-4-fluorobenzyl)sulfinyl)quinolin-4(1H)-one] is under 1 µM; for `CC(=O)c1c([S+]([O-])Cc2cc(C)on2)[nH]c2c(F)ccc(F)c2c1=O` (centres unmarked) [Compound 82, 3-acetyl-5,8-difluoro-2-(((5-methylisoxazol-3-yl)methyl)sulfinyl)quinolin-4(1H)-one] it is under 1 µM; for `CC(=O)c1c([S+]([O-])Cc2cc(F)cc(F)c2)[nH]c2c(Br)ccc(Cl)c2c1=O` (centres unmarked) [Compound 46, 3-acetyl-8-bromo-5-chloro-2-((3,5-difluorobenzyl)sulfinyl)quinolin-4(1H)-one] it is under 1 µM.
As to `CC(=O)c1c([S+]([O-])Cc2ccc(S(F)(F)(F)(F)F)cc2)[nH]c2c(Br)ccc(Cl)c2c1=O` (centres unmarked) [Compound 68, 3-acetyl-8-bromo-5-chloro-2-((4-(pentafluoro-16-sulfanyl)benzyl)sulfinyl)quinolin-4(1H)-one], at recombinant c-Myc/Max, the IC50 was under 1 µM.
With `Cc1cc(C[S+]([O-])c2[nH]c3c(Cl)ccc(Cl)c3c(=O)c2C(=O)C(C)C)no1` (centres unmarked) [Compound 86, 5,8-dichloro-3-isobutyryl-2-(((5-methylisoxazol-3-yl)methyl)sulfinyl)quinolin-4(1H)-one], on recombinant c-Myc/Max, the IC50 is under 1 µM.
The same measure, in the same setting: the figure for `O=C(c1c([S+]([O-])Cc2ccc(SC(F)(F)F)cc2)[nH]c2c(Br)ccc(Cl)c2c1=O)C1CC1` (centres unmarked) [Compound 101, 8-bromo-5-chloro-3-(cyclopropanecarbonyl)-2-((4-((trifluoromethyl)thio)benzyl)sulfinyl)quinolin-4(1H)-one] is under 1 µM.
With `CSc1c(C(C)=O)c(=O)c2cc(F)ccc2n1C` [Compound 7, 3-acetyl-6-fluoro-1-methyl-2-(methylthio)quinolin-4(1H)-one], the IC50 at recombinant c-Myc/Max is under 1 µM.
Still for that read-out and setting: the figure for `COc1cc(C[S+]([O-])c2[nH]c3c(Br)ccc(Cl)c3c(=O)c2C(C)=O)cc(OC)c1` (centres unmarked) [Compound 59, 3-acetyl-8-bromo-5-chloro-2-((3,5-dimethoxybenzyl)sulfinyl)quinolin-4(1H)-one] is under 1 µM.
For `CC(=O)c1c([S+](C)[O-])n(C(=O)c2ccc(Br)cc2)c2c(Br)ccc(Cl)c2c1=O` (centres unmarked) [Compound 9, 3-acetyl-8-bromo-1-(4-bromobenzoyl)-5-chloro-2-(methylsulfinyl)quinolin-4(1H)-one], the IC50 at recombinant c-Myc/Max is under 1 µM.
On the same count and under the same terms, the figure for `O=C(c1ccccc1)c1c([S+]([O-])Cc2ccc(S(F)(F)(F)(F)F)cc2)[nH]c2c(F)ccc(F)c2c1=O` (centres unmarked) [Compound 87, 3-benzoyl-5,8-difluoro-2-((4-(pentafluoro-λ6-sulfanyl)benzyl)sulfinyl)quinolin-4(1H)-one] is under 1 µM; for `CC(=O)c1c([S+]([O-])Cc2ccc(S(F)(F)(F)(F)F)cc2F)[nH]c2c(Br)ccc(Cl)c2c1=O` (centres unmarked) [Compound 69, 3-acetyl-8-bromo-5-chloro-2-((2-fluoro-4-(pentafluoro-16-sulfanyl)benzyl)sulfinyl)quinolin-4(1H)-one] it is under 1 µM; for `CC(=O)c1c([S+]([O-])Cc2ccc(S(F)(F)(F)(F)F)cc2)[nH]c2c(F)ccc(F)c2c1=O` (centres unmarked) [Compound 80, 3-acetyl-5,8-difluoro-2-((4-(pentafluoro-λ6-sulfanyl)benzyl)sulfinyl)quinolin-4(1H)-one] it is under 1 µM.
